For 3 compounds, IC50 results are on record in patent US5814654A, “Substituted guanidine derivatives” (Sumitomo Pharmaceuticals Company, Limited, priority 1996, dated 1998).

What is called IC50 is the point on the concentration scale where inhibition reaches its midpoint. A lower IC50 goes with greater potency.

The target of this experiment is T1, Na+/H+ exchange transport system (Rattus norvegicus, UniProt P26431).
T1 construct: using the vascular smooth muscle cells isolated from the rat thoracic aorta; endogenous in cells; host or cells: vascular smooth muscle cells isolated from the rat thoracic aorta
T1 sequence (P26431 whole entry): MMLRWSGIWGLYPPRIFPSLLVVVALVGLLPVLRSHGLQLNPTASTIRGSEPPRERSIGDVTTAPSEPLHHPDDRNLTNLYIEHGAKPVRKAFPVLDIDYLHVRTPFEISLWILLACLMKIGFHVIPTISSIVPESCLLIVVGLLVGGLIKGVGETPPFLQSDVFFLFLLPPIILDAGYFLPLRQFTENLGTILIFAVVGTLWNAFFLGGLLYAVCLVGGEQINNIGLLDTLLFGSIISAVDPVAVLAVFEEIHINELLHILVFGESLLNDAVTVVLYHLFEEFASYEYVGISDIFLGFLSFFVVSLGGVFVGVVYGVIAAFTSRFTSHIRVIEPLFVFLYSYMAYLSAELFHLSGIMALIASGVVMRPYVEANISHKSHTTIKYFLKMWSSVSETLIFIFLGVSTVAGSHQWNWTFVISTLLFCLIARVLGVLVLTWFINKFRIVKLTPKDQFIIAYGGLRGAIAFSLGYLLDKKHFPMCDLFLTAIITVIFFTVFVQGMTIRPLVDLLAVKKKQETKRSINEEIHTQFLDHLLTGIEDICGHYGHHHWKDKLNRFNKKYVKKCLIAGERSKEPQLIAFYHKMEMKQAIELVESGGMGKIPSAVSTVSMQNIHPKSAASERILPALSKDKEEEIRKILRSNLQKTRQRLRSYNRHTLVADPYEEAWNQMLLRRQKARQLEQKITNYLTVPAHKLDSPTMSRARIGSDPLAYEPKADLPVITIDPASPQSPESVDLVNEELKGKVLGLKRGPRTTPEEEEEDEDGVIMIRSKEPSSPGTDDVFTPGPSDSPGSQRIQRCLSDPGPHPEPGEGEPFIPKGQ
Kind of experiment: Inhibitory effect on the Na+/H+ exchange transport system (in vitro), change in intracellular pH during acid loading. The following applies: vascular smooth muscle cells isolated from the rat thoracic aorta. It is filed as cell-based. Here is the method: Inhibitory effect on the Na+/H+ exchange transport system (in vitro)
The test was carried out according to the method of Yamori et al. (J. Hypertension, 8, 153 (1990)). In detail, inhibitory effect on the Na+/H+ exchange transport system was evaluated by the change in intracellular pH during acid loading, using the vascular smooth muscle cells isolated from the rat thoracic aorta.
Consider `NC(N)=NC(=O)c1[nH]c2cccc3c2c1CCC3=O` [Example 1, N-(aminoiminomethyl)-1,3,4,5-tetrahydro-5-oxo-benz[cd]indole-2-carboxamidemethanesulfonate], for which the IC50 turned out to be 4000 nM.
Turning to `Cn1c(C(=O)N=C(N)N)c2c3c(cccc31)CCC2` [Example 2, N-(aminoiminomethyl)-1,3,4,5-tetrahydro-1-methyl-benz[cd]indole-2-carboxamide methanesulfonate], 150 nM corresponded to half-maximal inhibition (IC50).
As for `NC(N)=NC(=O)c1[nH]c2cccc3c2c1CCC3` [Example 3, N-(aminoiminomethyl)-1,3,4,5-tetrahydro-benz[cd]indole-2-carboxamide methanesulfonate], the figure is 700 nM.
